Measured values from ChEMBL document CHEMBL6083276, “Pan-Transcriptional Enhanced Associated Domain Palmitoylation Pocket Covalent Inhibitor” (J Med Chem, 2024).
One block for each molecule: values may come before it. The source made the active and inactive calls. The calls are words filed in the database; no cut-off is given here.

What was measured:
[1] = Inhibition of palmitoylation site of TEAD (unknown origin) in human Hippo Pathway/TEAD Luciferase reporter MCF7 cells assessed as reduction in transcriptional activation by measuring luciferase activity incubated for 24 hrs by Promega One-Glo luciferase reagent based assay; assay type: cell-based, Hippo Pathway/TEAD Luciferase reporter MCF7 cell; settings: MCF7, 24 h
NCI-H226 [2] = assay: Cytotoxicity against human NCI-H226 cells assessed as reduction in cell viability incubated for 144 hrs by CellTiter-Glo luciferase assay; assay type: functional, cell-based; settings: NCI-H226, 144 h
[3] = Selectivity index, ratio of IC50 for human NCI-H28 cells to IC50 for human NCI-H226 cells
NCI-H226 [4] = assay: (§1) Inhibition of CTGF gene expression in human NCI-H226 cells at 30 nM incubated for 24 hrs by RT-qPCR analysis relative to control; assay type: functional
NCI-H226 [5] = assay: (§2) Inhibition of CYR61 gene expression in human NCI-H226 cells at 30 nM incubated for 24 hrs by RT-qPCR analysis relative to control; assay type: functional
NCI-H226 [6] = assay: Inhibition of CTGF gene expression in human NCI-H226 cells at 300 nM incubated for 24 hrs by RT-qPCR analysis; assay type: functional, cell-based
NCI-H226 [7] = assay: Inhibition of CYR61 gene expression in human NCI-H226 cells at 300 nM incubated for 24 hrs by RT-qPCR analysis; assay type: functional, cell-based
[8] = target: Transcriptional enhancer factor TEF-1 (Homo sapiens) (UniProt P28347); assay: Inhibition of Myc-tagged TEAD1 (unknown origin) palmitoylation transfected in HEK293 cells at 300 nM incubated for 24 hrs by palmitoylation assay; assay type: cell-based
Sequence of Transcriptional enhancer factor TEF-1 (Homo sapiens) (P28347 whole entry): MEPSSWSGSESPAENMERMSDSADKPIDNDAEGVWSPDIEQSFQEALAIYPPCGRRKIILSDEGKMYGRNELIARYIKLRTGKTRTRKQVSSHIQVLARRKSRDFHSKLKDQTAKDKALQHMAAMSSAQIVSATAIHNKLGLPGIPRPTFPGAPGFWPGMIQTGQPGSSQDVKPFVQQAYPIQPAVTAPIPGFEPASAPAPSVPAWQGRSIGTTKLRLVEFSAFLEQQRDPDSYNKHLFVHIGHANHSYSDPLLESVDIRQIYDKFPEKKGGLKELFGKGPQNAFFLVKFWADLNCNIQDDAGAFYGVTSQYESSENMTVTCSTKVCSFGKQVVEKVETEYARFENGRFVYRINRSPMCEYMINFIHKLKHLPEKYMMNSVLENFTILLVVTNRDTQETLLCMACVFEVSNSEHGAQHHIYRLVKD

[9] = target: Transcriptional enhancer factor TEF-5 (Homo sapiens) (UniProt Q99594); assay: Inhibition of Myc-tagged TEAD3 (unknown origin) palmitoylation transfected in HEK293 cells at 300 nM incubated for 24 hrs by palmitoylation assay; assay type: cell-based
Sequence of Transcriptional enhancer factor TEF-5 (Homo sapiens) (Q99594 whole entry): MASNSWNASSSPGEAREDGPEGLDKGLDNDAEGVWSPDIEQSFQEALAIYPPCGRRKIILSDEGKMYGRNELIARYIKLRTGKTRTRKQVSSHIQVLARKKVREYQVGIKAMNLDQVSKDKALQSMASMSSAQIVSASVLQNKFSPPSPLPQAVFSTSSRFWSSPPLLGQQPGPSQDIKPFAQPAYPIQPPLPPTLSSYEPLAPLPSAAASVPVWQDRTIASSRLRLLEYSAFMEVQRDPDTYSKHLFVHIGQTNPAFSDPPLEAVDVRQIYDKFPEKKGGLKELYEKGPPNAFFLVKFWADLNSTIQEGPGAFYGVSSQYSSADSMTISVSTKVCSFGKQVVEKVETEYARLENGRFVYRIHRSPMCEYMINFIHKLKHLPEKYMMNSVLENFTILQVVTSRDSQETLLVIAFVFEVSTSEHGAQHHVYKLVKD

NCI-H226 [10] = assay: Cytotoxicity against human NCI-H226 cells assessed as reduction in cell viability at 0.1 to 1 uM incubated for 12 to 48 hrs; assay type: functional, cell-based; settings: dose 0.1-1 µM, time 12-48 hrs
HEK293 = assay: Cytotoxicity against HEK293 cells assessed as reduction in cell viability at 0.1 to 1 uM incubated for 12 to 48 hrs; assay type: toxicity, cell-based; settings: human, hek293, 1 µM; dose lower 0.1 µM, time lower 12 hrs, dose upper 1 µM, time upper 48 hrs
[11] = Metabolic stability in mouse liver microsomes assessed as parent compound remaining measured after 15 mins by LC-MS/MS analysis; assay type: ADME, Microsome; settings: read-out: Stability
[12] = Metabolic stability in mouse liver microsomes assessed as parent compound remaining measured after 30 mins by LC-MS/MS analysis; assay type: ADME, Microsome; settings: read-out: Stability
[13] = Metabolic stability in human liver microsomes assessed as parent compound remaining measured after 15 mins by LC-MS/MS analysis; assay type: ADME, Microsome; settings: read-out: Stability
[14] = Metabolic stability in human liver microsomes assessed as parent compound remaining measured after 30 mins by LC-MS/MS analysis; assay type: ADME, Microsome; settings: read-out: Stability
[15] = Cmax in mouse at 10 mg/kg, po measured after 24 hrs by LC-MS/MS analysis; assay type: ADME, organism-based; settings: in vivo
[16] = Tmax in mouse at 10 mg/kg, po measured after 24 hrs by LC-MS/MS analysis; assay type: ADME, organism-based; settings: in vivo
[17] = AUClast in mouse at 10 mg/kg, po measured after 24 hrs by LC-MS/MS analysis; assay type: ADME, organism-based; settings: in vivo
[18] = MRT in mouse at 10 mg/kg, po measured after 24 hrs by LC-MS/MS analysis; assay type: ADME, organism-based; settings: in vivo
[19] = Half-life in mouse at 10 mg/kg, po measured after 24 hrs by LC-MS/MS analysis; assay type: ADME, organism-based; settings: in vivo
NCI-H226 [20] = assay: Antitumor activity against human NCI-H226 cells xenografted in mouse assessed as reduction in tumor volume at 10 mg/kg, po administered for 28 days; assay type: functional, organism-based; settings: time 28.0 day
NCI-H226 [21] = assay: Antitumor activity against human NCI-H226 cells xenografted in mouse assessed as tumor growth inhibition at 30 mg/kg, po administered for 28 days; assay type: functional, organism-based; settings: time 28.0 day
[22] = Toxicity in mouse xenografted with human NCI-H226 cells assessed as body weight loss at 10 to 30 mg/kg, po administered for 28 days; assay type: organism-based; settings: in vivo, 672 h, dose 10-30 mg/kg, time 28 day
[23] = as §1; assay type: functional
[24] = as §2; assay type: functional
NCI-H226 [25] = assay: Inhibition of CTGF gene expression in human NCI-H226 cells incubated for 24 hrs by RT-qPCR analysis; assay type: functional, cell-based; settings: dose 30-300 nM
NCI-H226 [26] = assay: Inhibition of CYR61 gene expression in human NCI-H226 cells incubated for 24 hrs by RT-qPCR analysis; assay type: functional, cell-based; settings: dose 30-300 nM
[27] = target: Transcriptional enhancer factor TEF-4 (Homo sapiens) (UniProt Q15562); assay: Inhibition of Myc-tagged TEAD2 (unknown origin) palmitoylation transfected in HEK293 cells at 300 nM incubated for 24 hrs by palmitoylation assay; assay type: cell-based
Sequence of Transcriptional enhancer factor TEF-4 (Homo sapiens) (Q15562 whole entry): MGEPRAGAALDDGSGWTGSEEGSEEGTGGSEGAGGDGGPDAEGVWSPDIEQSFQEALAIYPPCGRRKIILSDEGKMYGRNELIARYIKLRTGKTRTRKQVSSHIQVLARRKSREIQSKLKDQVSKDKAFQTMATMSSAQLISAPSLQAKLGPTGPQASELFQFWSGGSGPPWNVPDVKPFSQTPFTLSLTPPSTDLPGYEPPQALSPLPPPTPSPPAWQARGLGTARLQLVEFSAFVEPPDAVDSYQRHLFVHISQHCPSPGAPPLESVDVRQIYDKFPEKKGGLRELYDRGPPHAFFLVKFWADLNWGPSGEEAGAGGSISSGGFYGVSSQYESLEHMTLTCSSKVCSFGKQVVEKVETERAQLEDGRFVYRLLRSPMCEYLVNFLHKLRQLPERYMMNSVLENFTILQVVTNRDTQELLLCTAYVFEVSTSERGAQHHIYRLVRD

[28] = target: Transcriptional enhancer factor TEF-3 (Homo sapiens) (UniProt Q15561); assay: Inhibition of Myc-tagged TEAD4 (unknown origin) palmitoylation transfected in HEK293 cells at 300 nM incubated for 24 hrs by palmitoylation assay; assay type: cell-based
Sequence of Transcriptional enhancer factor TEF-3 (Homo sapiens) (Q15561 whole entry): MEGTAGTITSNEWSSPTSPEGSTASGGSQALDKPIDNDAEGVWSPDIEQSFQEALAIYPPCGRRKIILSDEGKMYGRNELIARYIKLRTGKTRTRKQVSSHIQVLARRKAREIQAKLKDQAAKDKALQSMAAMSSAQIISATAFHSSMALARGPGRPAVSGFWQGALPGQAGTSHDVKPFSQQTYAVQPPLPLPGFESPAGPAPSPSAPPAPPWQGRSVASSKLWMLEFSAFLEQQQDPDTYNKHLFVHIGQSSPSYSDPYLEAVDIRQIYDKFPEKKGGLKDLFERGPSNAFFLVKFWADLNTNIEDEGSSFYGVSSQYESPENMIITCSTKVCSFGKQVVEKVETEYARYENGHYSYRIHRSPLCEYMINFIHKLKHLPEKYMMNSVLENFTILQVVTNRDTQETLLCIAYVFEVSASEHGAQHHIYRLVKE

NCI-H226 [29] = assay: Antitumor activity against human NCI-H226 cells xenografted in mouse assessed as reduction in tumor size at 10 to 30 mg/kg, po measured upto 28 days; assay type: functional, organism-based; settings: dose 10-30 mg/kg, time <= 28.0 day
NCI-H226 [30] = assay: Antitumor activity against human NCI-H226 cells xenografted in mouse assessed as tumor growth inhibition at 30 mg/kg, po measured after 17 days; assay type: functional, organism-based; settings: time 17.0 day
[31] = test system: Hippo Pathway/TEAD Luciferase reporter MCF7 cell; assay: Inhibition of palmitoylation site of TEAD (unknown origin) in human Hippo Pathway/TEAD Luciferase reporter MCF7 cells assessed as reduction in transcriptional activation by measuring luciferase activity at 1000 nM incubated for 24 hrs by Promega One-Glo luciferase reagent based assay

SMILES: C=CC(=O)N1CCc2ccc(-c3cccs3)cc2C1
IC50 [1]: 5.36 nM | IC50 (NCI-H226 [2]): 402 nM

SMILES: C=CC(=O)N1CCc2ccc(-c3ccccc3)cc2C1
IC50 [1]: 3.15 nM | IC50 (NCI-H226 [2]): 7.04 nM

SMILES: C=CC(=O)Nc1ccc(C)c(Oc2ccc(Cl)cc2)c1
IC50 [1]: 0.61 nM | IC50 (NCI-H226 [2]): 10.6 nM | remaining at 0.25 h [11]: 26.4% | remaining at 0.5 h [12]: 9.7% | remaining at 0.25 h [13]: 77.6% | remaining at 0.5 h [14]: 63.5%

SMILES: C=CC(=O)N1CCc2ccc(-c3ccc(C(F)(F)F)cc3Cl)cc2C1
IC50 [1]: 1.04 nM | IC50 (NCI-H226 [2]): 119 nM

SMILES: C=CC(=O)N1CCc2ccc(-c3ccc(C(F)(F)F)c(F)c3)cc2C1
IC50 [1]: 0.36 nM | IC50 (NCI-H226 [2]): 115 nM

SMILES: C[C@H](NC(=O)c1ccc2c(-c3ccc(C(F)(F)F)cc3)cccc2c1)c1ccccn1
IC50 [1]: 1.9 nM | IC50 (NCI-H226 [2]): 27.1 nM

SMILES: C=CC(=O)N1CCc2ccc(-c3ccc(C(F)(F)F)cn3)cc2C1
IC50 [1]: 4.11 nM | IC50 (NCI-H226 [2]): 26.6 nM

SMILES: C=CC(=O)N1CCc2ccc(-c3ccc(C(F)(F)F)nc3)cc2C1
IC50 [1]: 5.48 nM | IC50 (NCI-H226 [2]): 391 nM

SMILES: C=CC(=O)N1CCc2ccc(-c3ccc(C)cc3)cc2C1
IC50 [1]: 4.26 nM | IC50 (NCI-H226 [2]): 3.03 nM

Second part, led by results:

IC50 [1]: 0.7 nM
SMILES: C=CC(=O)N1CCc2ccc(-c3ccc(OC(F)(F)F)cc3)cc2C1
IC50 (NCI-H226 [2]): 22.2 nM

IC50 [1]: 1.34 nM | inhibition [8]: Active | inhibition [9]: Active | remaining at 0.25 h [11]: 89.2% | remaining at 0.5 h [12]: 85.1% | remaining at 0.25 h [13]: 98.2% | remaining at 0.5 h [14]: 97.7% | Cmax [15]: 1390 ng/mL | Tmax [16]: 45 min | AUC(0-t) at 24 h [17]: 5410 ng·h/mL | MRT [18]: 7.5 h | half-life [19]: 337 min
SMILES: C=C(F)C(=O)N1CCc2ccc(-c3ccc(C(F)(F)F)cc3)cc2C1
IC50 (NCI-H226 [2]): 30.9 nM | Ratio IC50 [3]: >20 | inhibition (NCI-H226 [4]): inactive | inhibition (NCI-H226 [5]): inactive | inhibition (NCI-H226 [6]): Active | inhibition (NCI-H226 [7]): Active | Activity (NCI-H226 [10]): inactive | Activity (HEK293): Non-toxic | Activity (NCI-H226 [20]): Active; Modest Effect Observed | Activity (NCI-H226 [21]): Active | Activity [22]: Non-toxic

IC50 [1]: 0.88 nM
SMILES: C=CC(=O)N1CCc2ccc(-c3cccc(C(F)(F)F)c3)cc2C1
IC50 (NCI-H226 [2]): 85.2 nM

IC50 [1]: 0.84 nM
SMILES: C=CC(=O)N1CCc2ccc(-c3ccc(F)cc3)cc2C1
IC50 (NCI-H226 [2]): 21.6 nM

IC50 [1]: 0.34 nM | inhibition [8]: Active | inhibition [27]: Active | inhibition [9]: Active | inhibition [28]: Active | remaining at 0.25 h [11]: 75.9% | remaining at 0.5 h [12]: 62.7% | remaining at 0.25 h [13]: 95.9% | remaining at 0.5 h [14]: 79.6% | Cmax [15]: 974 ng/mL | Tmax [16]: 67.5 min | AUC(0-t) at 24 h [17]: 3810 ng·h/mL | MRT [18]: 6.08 h | half-life [19]: 184 min
SMILES: C=CC(=O)N1CCc2ccc(-c3ccc(C(F)(F)F)cc3)cc2C1
IC50 (NCI-H226 [2]): 3.34 nM | Ratio IC50 [3]: >150 | inhibition at 0.03 µM [23]: > 50% | inhibition at 0.03 µM [24]: > 50% | inhibition (NCI-H226 [6]): Active; Higher Inhibition Observed | inhibition (NCI-H226 [7]): Active; Higher Inhibition Observed | inhibition (NCI-H226 [25]): Dose-dependent-effect | inhibition (NCI-H226 [26]): Dose-dependent-effect | Activity (NCI-H226 [10]): inactive | Activity (HEK293): Non-toxic | Activity (NCI-H226 [29]): Active | Activity (NCI-H226 [30]): Active; Compound Showed Sustain Suppression Without Rebound | Activity [22]: Non-toxic

IC50 [1]: 0.65 nM
SMILES: CN(C)C/C=C/C(=O)N1CCc2ccc(-c3ccc(C(F)(F)F)cc3)cc2C1
inhibition [31]: Active; Incomplete Inhibition Observed | inhibition (NCI-H226 [7]): Active; Minimal Inhibition Observed | inhibition (NCI-H226 [25]): Dose-dependent-effect

IC50 [1]: 1510 nM
SMILES: CCC(=O)N1CCc2ccc(-c3ccc(C(F)(F)F)cc3)cc2C1

IC50 [1]: 52.4 nM
SMILES: CC#CC(=O)N1CCc2ccc(-c3ccc(C(F)(F)F)cc3)cc2C1
